This note sets out measurements from PMC3677933, “Identification of Class I HLA T Cell Control Epitopes for West Nile Virus” (PLoS ONE, 2013).

Ends that are not written are not given here.

One assay addresses T1, HLA-A*11:01 (Homo sapiens, UniProt P04439, A114D/D185E/E176A/F33Y/L180Q/S129P/T187R).
T1 construct: purchased Pure Protein L.L.C
The experiment in a line: Fluorescence polarization competitive peptide-binding assay. As to the method: Figure 1 Direct epitope discovery of WNV epitope GTL9. (A) RP-HPLC profile of HLA-A*11:01 peptides from uninfected (blue) and WNV-infected (red) cells. (B) MS ion spectra of HPLC fraction 50 from uninfected (black) and infected (red) cells. MS data were recorded for 300 scans. (C) Overlay of the MS/MS fragmentation pattern of ion 466.7 in the infected HPLC fraction 50 (identified as the GTL9 peptide; red) with the MS/MS fragmentation pattern for the GTL9 synthetic peptide (black). (D) Florescence polarization competitive binding assay with the GTL9 synthetic peptide and HLA-A*11:01.
These six WNV peptides fit the reported A*11:01-binding motif. […] The fluorescence polarization assay used to assess A*11:01 binding categorizes peptides with IC50 values <5,000 nM as high affinity. In summary, six WNV ligands were discovered by direct elution from A*11:01, these ligands were sequenced by tandem MS, their sequence was confirmed with synthetic ligands, they bound well to A*11:01, they were of traditional length, and these ligands were consistent with the previously reported A*11:01 motif.
MS ion maps were generated for HPLC fractions containing peptides. Fractions were ionized by using nanoelectrospray capillaries (Proxeon) into a QSTAR elite (Applied Biosystems) electrospray quadrupole time-of-flight mass spectrometer. Peptide sequences were determined manually by using the MASCOT software package (Matrix Science). Peptide binding to HLA-A*11:01 was determined using the florescence polarization method (Pure Protein L.L.C.).
In general terms: Fluorescence polarisation rises when a labelled molecule tumbles more slowly, as on binding a larger partner.
AIIEVDRSAAK [AII11]: the concentration for half-maximal inhibition (IC50) stood at 11.2 µM. This lies in the double-digit micromolar range.
On the same count and under the same terms, for AVVVNPSVK [AVV9] the value was 2.25 µM; for GTLTSAINR [GTL9], 1.13 µM; for KNMEKPGLK [KNM9], 24.3 µM.
The same measure, in the same setting: for KSYETEYPK [KSY9] the value was 7.89 µM; for RVLSLIGLK [RVL9], 0.334 µM.

The target of another assay is HLA-A*11:01 (fluorescence polarisation peptide-binding assay). The experiment in a line: fluorescence polarisation; competitive binding assay of synthetic peptide with HLA-A*11:01 (Pure Protein L.L.C. method, ref. 45); IC50 <5,000 nM categorised as high affinity.
For the substance “AII11 synthetic peptide (WNV NS5 2559-2569)”, the IC50 worked out at 11.2 µM.
As for “AVV9 synthetic peptide (WNV NS4B 2458-2466)”, the half-inhibitory concentration (IC50) turned out to be 2.25 µM. This IC50 is about 5-fold lower than that of the substance before.
Still for that read-out and setting: for “GTL9 synthetic peptide (WNV capsid 89-97)” the value was 1.13 µM.
On the same count and under the same terms, then “KNM9 synthetic peptide (WNV NS4B 2519-2527)”, with 24.3 µM.
For the substance “KSY9 synthetic peptide (WNV NS3 1894-1902)”, the IC50 is 7.88 µM.
Substance “RVL9 synthetic peptide (WNV capsid 23-31)” showed an IC50 of 0.334 µM.

As usually defined, the IC50 is the concentration that gives 50% inhibition. Low values mean greater potency, high ones weaker potency.
